Read-outs that look alike come from different tables or passages of the source.
Columns and labels:
Assay in all cases: PTPs activity assay (DiFMUP)
Type in all cases: biochemical
HePTP = target: T1, HePTP (Homo sapiens, UniProt P35236)
T1 construct: His; made in house; host or cells: E. coli
T1 sequence (P35236 1-360): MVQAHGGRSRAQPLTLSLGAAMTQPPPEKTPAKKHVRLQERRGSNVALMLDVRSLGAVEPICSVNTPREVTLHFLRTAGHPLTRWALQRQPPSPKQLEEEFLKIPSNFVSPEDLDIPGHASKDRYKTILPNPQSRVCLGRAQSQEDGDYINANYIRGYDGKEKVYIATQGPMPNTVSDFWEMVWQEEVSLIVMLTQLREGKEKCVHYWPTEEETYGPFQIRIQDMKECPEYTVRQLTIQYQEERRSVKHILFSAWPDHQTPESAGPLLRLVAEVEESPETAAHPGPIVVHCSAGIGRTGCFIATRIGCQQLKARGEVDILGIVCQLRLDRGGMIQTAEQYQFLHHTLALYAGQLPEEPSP
Description: (§1) Catalytic activity screening methods for PTPs using candidate compounds were performed as previously described.^[ [77] ^] In brief, soluble fusion PTP proteins, His‐ΔSHP2, encompassing the peptide from amino acids 205–593 retaining PTP activity, His‐ΔSHP2^K325A, His‐ΔSHP1, encompassing the peptide from amino acids 202–595 retaining PTP activity, His‐PTP1B, His‐HePTP, His‐VHR, and His‐TCPTP were cloned, expressed, and purified in E. coli. After determining protein concentration using bicinchoninic acid (BCA) assay kit, 1 µg fusion protein, 10 µM library compound were added in 100 µL reaction mixture (55 mM 4‐(2‐hydroxyethyl)‐1‐piperazineethanesulfonic acid [HEPES], 100 mM sodium chloride [NaCl], 0.5 mM ethylenediaminetetraacetic acid [EDTA], 1 mM dithiothreitol [DTT], 0.01% Triton X‐100, 0.002% bovine serum albumin [BSA], and 0.1% dimethyl sulfoxide [DMSO]) and incubated at 37 °C for 30 min in the dark, with Na3VO4 as positive control. The detection substrate DiFMUP (50 µM) was promptly added to each reaction and functioned at 37 °C for 30 min in the dark. The fluorescence intensity was then measured using Multimode Plate Reader (λa = 358 nm, λe = 455 nm, PerkinElmer, USA).

PTP1B = target: T2, PTP1B (Homo sapiens, UniProt P18031)
T2 construct: His; made in house; host or cells: E. coli
T2 sequence (P18031 1-435): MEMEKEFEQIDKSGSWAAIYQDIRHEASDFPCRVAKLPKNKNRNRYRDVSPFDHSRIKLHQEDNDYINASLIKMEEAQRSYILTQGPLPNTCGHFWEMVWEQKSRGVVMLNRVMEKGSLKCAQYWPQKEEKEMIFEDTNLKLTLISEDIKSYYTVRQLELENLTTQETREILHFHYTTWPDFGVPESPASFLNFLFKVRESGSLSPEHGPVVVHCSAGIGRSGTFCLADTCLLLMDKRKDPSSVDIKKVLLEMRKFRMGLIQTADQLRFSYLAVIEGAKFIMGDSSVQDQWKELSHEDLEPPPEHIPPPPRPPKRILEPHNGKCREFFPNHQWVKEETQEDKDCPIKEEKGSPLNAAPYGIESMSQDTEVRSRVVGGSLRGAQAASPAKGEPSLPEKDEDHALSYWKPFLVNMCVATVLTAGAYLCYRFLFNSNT
Description: as §1

ΔSHP1 = target: T3, ΔSHP1 (Homo sapiens, UniProt P29350)
T3 construct: His‐ΔSHP1, encompassing the peptide from amino acids 202–595 retaining PTP activity; His; made in house; host or cells: E. coli
T3 sequence (P29350 202-595, stated change not applied): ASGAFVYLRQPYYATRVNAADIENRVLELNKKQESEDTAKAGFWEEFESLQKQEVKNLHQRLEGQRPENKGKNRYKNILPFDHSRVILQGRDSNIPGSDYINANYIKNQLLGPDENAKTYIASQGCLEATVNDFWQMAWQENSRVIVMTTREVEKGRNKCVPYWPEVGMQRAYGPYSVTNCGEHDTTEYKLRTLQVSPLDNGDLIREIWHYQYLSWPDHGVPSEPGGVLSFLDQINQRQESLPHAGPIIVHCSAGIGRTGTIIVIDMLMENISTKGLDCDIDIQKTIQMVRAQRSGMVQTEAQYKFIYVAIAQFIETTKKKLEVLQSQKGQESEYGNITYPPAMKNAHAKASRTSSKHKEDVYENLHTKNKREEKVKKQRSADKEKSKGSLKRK
Description: as §1

ΔSHP2 = target: T4, ΔSHP2 (Homo sapiens, UniProt Q06124)
T4 construct: His‐ΔSHP2, encompassing the peptide from amino acids 205–593 retaining PTP activity; His; made in house; host or cells: E. coli
T4 sequence (Q06124 205-593): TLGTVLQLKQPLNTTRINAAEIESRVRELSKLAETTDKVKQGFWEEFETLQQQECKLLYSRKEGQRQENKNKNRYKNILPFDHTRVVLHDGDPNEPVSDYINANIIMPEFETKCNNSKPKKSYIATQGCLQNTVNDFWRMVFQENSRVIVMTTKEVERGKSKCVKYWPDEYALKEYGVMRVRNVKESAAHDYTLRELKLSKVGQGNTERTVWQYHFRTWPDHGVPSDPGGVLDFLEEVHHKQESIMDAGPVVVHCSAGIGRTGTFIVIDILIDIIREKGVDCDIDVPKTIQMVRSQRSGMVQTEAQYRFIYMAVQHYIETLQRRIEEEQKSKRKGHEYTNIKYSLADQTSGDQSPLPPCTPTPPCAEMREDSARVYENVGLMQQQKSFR
Description: as §1

VHR = target: T5, VHR (Homo sapiens, UniProt P51452)
T5 construct: His; made in house; host or cells: E. coli
T5 sequence (P51452 whole entry): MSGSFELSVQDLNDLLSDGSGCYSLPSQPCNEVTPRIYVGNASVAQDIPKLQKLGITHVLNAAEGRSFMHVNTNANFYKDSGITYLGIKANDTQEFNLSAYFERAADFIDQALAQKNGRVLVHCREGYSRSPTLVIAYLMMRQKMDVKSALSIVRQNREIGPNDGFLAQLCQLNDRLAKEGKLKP
Description: as §1

TCPTP = target: T6, TCPTP (Homo sapiens, UniProt P17706)
T6 construct: His; made in house; host or cells: E. coli
T6 sequence (P17706 1-415): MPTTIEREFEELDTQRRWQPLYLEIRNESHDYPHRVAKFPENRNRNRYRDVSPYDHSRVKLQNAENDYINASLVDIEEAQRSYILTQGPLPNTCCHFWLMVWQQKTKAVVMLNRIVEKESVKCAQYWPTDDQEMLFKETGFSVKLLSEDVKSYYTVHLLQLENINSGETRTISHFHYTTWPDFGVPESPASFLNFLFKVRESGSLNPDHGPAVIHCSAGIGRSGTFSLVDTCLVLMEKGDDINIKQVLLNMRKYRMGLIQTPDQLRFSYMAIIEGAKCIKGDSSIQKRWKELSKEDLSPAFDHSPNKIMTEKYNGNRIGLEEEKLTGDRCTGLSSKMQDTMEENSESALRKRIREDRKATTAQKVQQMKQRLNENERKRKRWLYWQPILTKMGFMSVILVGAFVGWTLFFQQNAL
Description: as §1

Row | IC50 (PTP1B; read-out: IC50 of PTPs PTP1B) | Structure (SMILES) | IC50 (HePTP) | IC50 (PTP1B) | IC50 (ΔSHP1) | IC50 (ΔSHP2) | IC50 (VHR) | IC50 (TCPTP)
1 | – | CC(C)=CCC[C@]1(C)C=Cc2c(O)c3c(c(CC=C(C)C)c2O1)O[C@]12C(=C[C@@H]4C[C@H]1C(C)(C)O[C@@]2(C/C=C(/C)C(=O)O)C4=O)C3=O [S2448, Gambogic acid] | > 200 µM | 30.3 µM | > 200 µM | 11.8 µM | 123 µM | 294 µM
2 | > 200 µM | CC1(C)CCC2=C(O1)c1ccccc1C(=O)C2=O [S7261, β‐Lapachone] | > 200 µM | – | > 200 µM | 34.2 µM | > 200 µM | > 200 µM
3 | 16.6 µM | CC1(C)CCC(CN2CCN(c3ccc(C(=O)NS(=O)(=O)c4ccc(NCC5CCOCC5)c([N+](=O)[O-])c4)c(Oc4cnc5[nH]ccc5c4)c3)CC2)=C(c2ccc(Cl)cc2)C1 [S8048, Venetoclax] | 20 µM | – | 81.3 µM | 2.07 µM | 36.9 µM | 9.43 µM

Row | Structure (SMILES) | IC50 (PTP1B; read-out: IC50 of PTPs PTP1B) | IC50 (HePTP) | IC50 (PTP1B) | IC50 (ΔSHP1) | IC50 (ΔSHP2) | IC50 (VHR) | IC50 (TCPTP)
4 | Cc1cc2c(C(C)C)c(O)c(O)c(C=O)c2c(O)c1-c1c(C)cc2c(C(C)C)c(O)c(O)c(C=O)c2c1O [S2812, AT101] | 77.6 µM | 135 µM | – | 197 µM | 39.5 µM | 141 µM | 197 µM

Reference: article PMC12005787, “Synthetic Lethality of SHP2 and XIAP Suppresses Proliferation and Metastasis in KRAS‐mutant Nonsmall Cell Lung Cancer” (Advanced Science, 2025)
